BindingDB's records for doi:10.1021/acs.jmedchem.1c00256 (University of Strasbourg, 2021)

What was measured:
[1] = target: Prolactin-releasing peptide receptor PRLHR (Homo sapiens) (UniProt P49683); test: Displacement of [3H]-PrRP-20 from human PrRP receptor expressed in CHO cells by TopCount scintillation counting method
KiSS-1 receptor = KiSS-1 receptor (Homo sapiens, UniProt Q969F8); test: Displacement of [125I]-Kp-10 from human Kiss1 receptor by TopCount scintillation counting method
Chain of KiSS-1 receptor (Q969F8 whole entry): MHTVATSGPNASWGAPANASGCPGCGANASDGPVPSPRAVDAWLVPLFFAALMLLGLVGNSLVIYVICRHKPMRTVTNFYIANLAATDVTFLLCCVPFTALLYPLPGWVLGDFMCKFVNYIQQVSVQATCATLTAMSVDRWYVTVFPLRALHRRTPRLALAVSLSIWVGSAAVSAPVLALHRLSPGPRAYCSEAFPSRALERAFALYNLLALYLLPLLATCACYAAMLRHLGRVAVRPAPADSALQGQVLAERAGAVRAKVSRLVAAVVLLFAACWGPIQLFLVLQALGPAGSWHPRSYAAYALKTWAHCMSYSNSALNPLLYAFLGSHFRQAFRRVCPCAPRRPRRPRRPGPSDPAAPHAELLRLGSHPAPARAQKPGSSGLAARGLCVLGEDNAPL

Chain of Prolactin-releasing peptide receptor PRLHR (Homo sapiens) (P49683 whole entry, looked up): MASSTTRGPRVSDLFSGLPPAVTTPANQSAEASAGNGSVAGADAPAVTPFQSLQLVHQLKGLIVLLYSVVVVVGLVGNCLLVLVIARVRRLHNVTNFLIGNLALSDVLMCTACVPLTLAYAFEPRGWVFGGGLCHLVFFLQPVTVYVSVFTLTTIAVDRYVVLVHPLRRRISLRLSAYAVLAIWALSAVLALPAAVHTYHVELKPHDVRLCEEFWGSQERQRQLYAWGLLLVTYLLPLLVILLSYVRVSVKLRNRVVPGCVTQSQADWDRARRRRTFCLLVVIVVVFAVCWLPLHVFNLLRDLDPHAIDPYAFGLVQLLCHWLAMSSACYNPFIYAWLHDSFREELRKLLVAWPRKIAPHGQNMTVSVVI

Ki [1] | Ki (KiSS-1 receptor) | Compound
> 50000 nM |  | N=C(N)NCCC[C@@H](NC(=O)C=C(c1ccccc1)c1ccccc1)C(=O)N[C@H](Cc1ccccc1)C(N)=O
 | 0.062 nM | CC(C)C[C@H](NC(=O)CNC(=O)[C@H](Cc1ccccc1)NC(=O)[C@H](CO)NC(=O)[C@H](CC(N)=O)NC(=O)[C@H](Cc1c[nH]c2ccccc12)NC(=O)[C@H](CC(N)=O)NC(=O)[C@@H](N)Cc1ccc(O)cc1)C(=O)N[C@@H](CCCNC(=N)N)C(=O)N[C@@H](Cc1ccccc1)C(N)=O [Kisspeptin-10]
2.1 nM |  | H-TPDINPAWYASRGIRPVGRF-NH2
